Results on two substances are retold here after patent US20240209036A1, “PEPTIDES AND METHODS OF USE” (priority 2021, published 2024).

Where “and” joins values, the source holds several entries; their conditions need not be identical. Equal values may be shown once. Ends that are not written are not given here.

The subject of experiment [1] is cecal ligation and puncture (CLP) rat model of intestinal necrosis. The experiment in a line: Cecal ligation and puncture (CLP) survival model. The experiment is classed as in vivo. The following applies: for survival, multi-dose regimen: CLP rats, 40 mg/kg at 0.5, 24, 48 and 72 hours after surgery. As to the method: The previously established CLP model was utilized with modifications. Male Long-Evans rats (250-300 grams) were induced using 5% isoflurane with oxygen and anesthesia was maintained by isoflurane delivered via nose cone at 1.5-2% with oxygen. Adequate anesthesia was confirmed with a toe pinch. The surgical area (lower abdominal quadrants) was shaved, cleaned with 10% iodine and subsequently cleaned with 70% ethanol for a total of three times. For pain management, buprenorphine-SR (1 mg/kg) was given subcutaneously pre-op. For the surgical procedure, animals were in the supine position with their heads oriented away from the operator. After placing a sterile drape, a longitudinal midline incision (approximately 3-4 cm) was made with a sterile scalpel. After the initial incision, small scissors were used to enter the peritoneal cavity. The linea alba of the abdominal musculature was dissected away for intermuscular incision of fascial and peritoneal layers. The cecum was located and exteriorized, the remainder of the bowel was left in the peritoneal cavity. The mesentery of the cecum was dissected away with care taken to avoid damage to the cecal branch of the ileocecal artery and avoid bleeding complications. The cecum was ligated at 75% using sterile 3-0 non-absorbable suture. The cecum was perforated twice by through-and-through punctures using a sterile 18-gauge needle midway between the ligation and the tip of the cecum in a mesenteric-to-antimesenteric direction. The cecum was relocated into the abdominal cavity. The peritoneum was closed using 4-0 non-absorbable sutures and the skin was closed with sterile metallic wound clips. The animals received 5 mL of prewarmed (37° C.) normal saline subcutaneously for recovery. […] The peptide, consisting of the amino acid sequence […] (SEQ ID NO: 2) with a monodisperse, 24mer polyethylene glycol (PEG) tail, was manufactured by PolyPeptide Group (San Diego, CA) to >95% purity as verified by HPLC and mass spectrometry analysis. Lyophilized RLS-0071 was solubilized in 0.05 M Histidine buffer and pH adjusted to 6.5. […] Animals were monitored every 30 minutes for at least two hours post-surgery. Once bright, alert, and responsive, the animals were placed back into their home cage. A quantitative assessment of morbidity was conducted on the animals twice a day for the duration of the study. (Shrum, B., Anantha, R. V., Xu, S. X. et al. A robust scoring system to evaluate sepsis severity in an animal model. BMC Res Notes 7, 233 (2014). https://doi.org/10.1186/1756-0500-7-233). Scoring criteria included appearance, level of consciousness, activity, response to stimulus, eyes open vs. closed, respiration rate and respiration quality. […] The animals were subsequently monitored at a minimum of twice/day. […]

Experiment [2] concerns IL-6. The experiment in a line: Plasma IL-6 ELISA in CLP rats. The following applies: single dose RLS-0071, 24 hours post-surgery. The experiment is classed as in vivo, rat. As to the method: (§1) Blood samples were collected before surgery (pre-bleed) and 24 hours after surgery. Plasma was isolated from the blood and analyzed for free DNA concentration and cytokines levels as described below.
The Rat IL-6 ELISA was purchased from R&D Systems. Plasma samples from experimental animals were run according to the manufacturer's instructions. Briefly, diluted rat plasma samples were added to wells pre-coated with capture IL-6 antibodies overnight. The plate was blocked for 60 min at room temperature with 1% BSA. 100 uL of plasma samples (diluted 1:4) or standards was added to the plate and incubated at room temperature for 2 hrs, then any unbound components were removed by washing. Next, 100 μL of detection IL-6 antibody (diluted 1:60) was added and incubated for 2 hrs at room temperature and washed. Next, 100 μL of streptavidin-horseradish peroxidase (HIRP) conjugate (diluted 1:40) was added and incubated in the dark for 20 minutes at room temperature. Following washing, 100 μL of 3,3′,5,5′-tetramethylbenzidine (TMB) substrate was added for approximately 5 minutes at room temperature. The reaction was stopped with the addition of 100 μL of sulfuric acid and absorbance measured at 450 nm using a BioTek microplate reader. Sample concentrations were calculated using an IL-6 standard curve made with 1:2 serial dilutions.

Experiment [3] relates to free DNA in plasma (biomarker for NETs). The experiment in a line: Plasma free DNA by PicoGreen in CLP rats. The experiment is classed as in vivo, rat. The following applies: single dose RLS-0071, 24 hours post-surgery. The protocol:
as §1
Free DNA was measured by PicoGreen in rat plasma samples as previously described Briefly, plasma samples were diluted in 10 mM Tris-HCl, 1 mM EDTA, pH 8.0 (TE) buffer and 50 uL of each sample was added to the wells along with 50 uL of a 1:200 dilution of PicoGreen (Life Technologies, Carlsbad, CA, USA) and incubated at room temperature for 10 minutes, protected from light. A DNA standard curve was prepared in TE buffer. The fluorescence was then read at an excitation wavelength of 485 nm and an emission wavelength of 520 nm using a BioTek microplate reader. All free DNA measurements were done in triplicate.

Experiment [4] concerns complement system. The following applies: previously demonstrated in vitro assays; cited from earlier work.

Consider “IALILEP(Sar)CCQERAA (IALILEPXCCQERAA; sarcosine at position 8; MOD_RES (8)..(8) Sarcosine) [RLS-0088, PA peptide with isoleucine at position 8 replaced by sarcosine]”, for which the “survival, multi-dose regimen” value in experiment [1] is “increase in survival”.
As for “IALILEPICCQERAA-PEG24 (IALILEPICCQERAA-dPEG24; cysteine pairing not given here) [RLS-0071, 15 amino acid peptide with a C-terminal monodisperse 24-mer PEGylated moiety]”, the “survival, multi-dose regimen” value in experiment [1] was “significant increase in survival”. Besides, in experiment [1] (male Long-Evans rats, 75% CLP, single dose 40 mg/kg i.v. 30 minutes after surgery, assessed up to 5 days, 40 mg/kg), the survival was 80% and 50%. Further, the “increase in survival compared to no-rescue treatment group” value in experiment [1] (single dose 40 mg/kg i.v. 30 minutes after surgery) is reported as 2.5 fold. For the same substance, the “IL-6 level in blood compared with no-rescue-intervention animals” value in experiment [2] is “reduction in IL-6”. Also, the “level of free DNA in blood compared to animals not receiving treatment” value in experiment [3] is on record as “reduction in the level of free DNA”. In addition, the “inhibition of the complement system” value in experiment [4] is given as “strong inhibition of the complement system”.
